Measured values: patent US11000033B2, “Ketone or oxime compound, and herbicide” (NISSAN CHEMICAL CORPORATION, priority 2014, dated 2021)

How the values were obtained:
Format in all cases: in vivo
Avena fatua = test: Test Example 4: herbicidal effect by soil treatment (symbol I)
Method in brief: (§1)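 Seeds were sown in sterilized diluvial soil, covered with about 1.5 cm of soil, and the soil surface was sprayed with a water-diluted emulsion of the compound at a predetermined rate. Plants grew in a greenhouse at 25° C. to 30° C.; effects were scored visually 3 weeks after application.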

Scirpus juncoides [1] = test: Test Example 1: herbicidal activity, application before weed generation in submerged conditions (symbol B); conditions: application herbicide amount 320 g/ha
Method in brief: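 Pre-emergence, paddy conditions: emulsifiable formulation diluted in water, dosed onto floodwater (4 cm depth) on sowing day. Alluvial soil; weeds sown mixed; rice transplanted at 2.5-leaf stage. Greenhouse 25–30 °C, 3 wk. Score 0–5 (5 = ≥90% kill, 0 = ≤5%).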

[2] = test system: Echinochloa crus-galli var. crus-galli; test: Test Example 3: herbicidal effect by foliage application, Wagner pot (symbol H); conditions: application herbicide amount 320 g/ha; for H (Echinochloa crus-galli var. crus-galli) herbicidal effect grade: Table 24
Method in brief: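 Foliar spray of water-diluted emulsion formulation at a predetermined herbicide amount onto 14-day-old plants in flooded alluvial soil (water depth 0.1–0.5 cm), greenhouse 25–30 °C; rice sown alongside. Scored 3 wk post-application on set criteria.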

Chenopodium album [3] = test: Test Example 4: herbicidal effect by soil treatment (symbol O)
Method in brief: as §1

Digitaria ciliaris = test: Test Example 5: herbicidal effect by foliage application, plastic box (symbol F); conditions: 320 g/ha, 3 weeks after application
Method in brief: (§2)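 Herbicide, formulated as an emulsion and diluted in water, is sprayed onto the aerial parts of 14-day seedlings. These were grown at 25° C. to 30° C. in sterilized diluvial soil; effects are graded after 3 weeks.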

Scirpus juncoides [4] = test: Test Example 2: herbicidal activity, application during weed generation in submerged conditions (symbol B); conditions: Table 23; application herbicide amount 320 g/ha; grade 0-5 by criteria of Test Example 1
Method in brief: (§3)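 Paddy pot test, submerged (4 cm water), alluvial soil, mixed sowing; greenhouse 25–30° C. Emulsion formulation diluted to predetermined rate, applied onto floodwater at 1–2 leaf stage. Visual herbicidal rating at 3 wk post-treatment.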

rice plant = test: Test Example 5: effect on crop by foliage application, plastic box (symbol b); conditions: 320 g/ha, 3 weeks after application
Method in brief: (§4)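 Sterilized diluvial soil, plastic box (21 × 13 × 7 cm); spot sowing, ~1.5 cm soil cover; greenhouse 25–30° C.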

rapeseed = test: Test Example 5: effect on crop by foliage application, plastic box (symbol g); conditions: 320 g/ha, 3 weeks after application
Method in brief: as §4

Stellaria media = test: Test Example 4: herbicidal effect by soil treatment (symbol P)
Method in brief: as §1

Chenopodium album [5] = test: Test Example 5: herbicidal effect by foliage application, plastic box (symbol O); conditions: 320 g/ha, 3 weeks after application
Method in brief: as §2

[6] = test system: Echinochloa oryzacola Vasing.; test: Test Example 2: herbicidal activity, application during weed generation in submerged conditions (symbol A); conditions: Table 23; application herbicide amount 320 g/ha; grade 0-5 by criteria of Test Example 1
Method in brief: as §3

beet = test: Test Example 4: effect on crop by soil treatment (symbol f); conditions: for f: beet, effect grade on crop: 320 g/ha
Method in brief: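 Soil-treatment setup: crop and weed seeds were spot-sown into sterilized diluvial soil, then buried beneath approximately 1.5 cm of it, and the boxes were housed in a 25–30° C. greenhouse.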

[7] = application herbicide amount 320 g/ha

Row | Structure (SMILES) | B (Scirpus juncoides) herbicidal effect grade (Scirpus juncoides [1]) | H (Echinochloa crus-galli var. crus-galli) herbicidal effect grade [2] | F: Digitaria ciliaris, herbicidal effect grade (Digitaria ciliaris) | Herbicidal effect grade, B: Scirpus juncoides (Scirpus juncoides [4]) | b: directly sowed rice plant, effect on crop grade (rice plant) | g: rapeseed, effect on crop grade (rapeseed) | O: Chenopodium album, herbicidal effect grade (Chenopodium album [5]) | Herbicidal effect grade, A: Echinochloa oryzacola Vasing. [6] | Herbicidal effect grade, B: Scirpus juncoides (Scirpus juncoides [1]) | herbicidal effect on H (Echinochloa crus-galli var. crus-galli), grade 0-5 [2] | I: Avena fatua, herbicidal effect grade (Avena fatua; 320 g/ha) | O: Chenopodium album, herbicidal effect grade (Chenopodium album [3]; 320 g/ha) | F: Digitaria ciliaris, herbicidal effect (criteria 0-5) (Digitaria ciliaris) | b: directly sowed rice plant, effect on crop (criteria 0-5) (rice plant) | g: rapeseed, effect on crop (criteria 0-5) (rapeseed) | P: Stellaria media, herbicidal effect grade (Stellaria media; 320 g/ha) | O: Chenopodium album, herbicidal effect (criteria 0-5) (Chenopodium album [5]) | f: beet, effect grade on crop (beet) | also measured
1 | CCC(CC1CC(O)=C(c2c(C)cc(-c3ccccc3)cc2OC)C1=O)=NOC (mixture of isomers) [13-004] | 5 (Herbicidal ratio of 90% or more (almost completely withered)) | 5 (Herbicidal ratio of 90% or more (almost completely withered)) | 5 (Herbicidal ratio of 90% or more (almost completely withered)) | 5 (Herbicidal ratio of 90% or more (almost completely withered)) | 5 (Herbicidal ratio of 90% or more (almost completely withered)) | 4 (Herbicidal ratio of 70% or higher and lower than 90%) | 4 (Herbicidal ratio of 70% or higher and lower than 90%) | 5 (Herbicidal ratio of 90% or more (almost completely withered)) | – | – | – | – | – | – | – | – | – | – | I: Avena fatua, herbicidal effect grade (Avena fatua; [7]): 3 (Herbicidal ratio of 40% or higher and lower than 70%); O: Chenopodium album, herbicidal effect grade (Chenopodium album [3]; [7]): 0 (Herbicidal ratio of 5% or lower (almost no effect)); P: Stellaria media, herbicidal effect grade (Stellaria media; [7]): 1 (Herbicidal ratio of 5% or higher and lower than 20%); f: beet, effect on crop grade (beet; [7]): 0 (Herbicidal ratio of 5% or lower (almost no effect))
2 | CC#Cc1cc(C)c(C2=C(O)CC(CC(C)=NOCC(F)(F)F)C2=O)c(C)c1 (stereo not drawn) [9-011] | 5 (Herbicidal ratio of 90% or more (almost completely withered)) | 5 (Herbicidal ratio of 90% or more (almost completely withered)) | 5 (Herbicidal ratio of 90% or more (almost completely withered)) | 5 (Herbicidal ratio of 90% or more (almost completely withered)) | 5 (Herbicidal ratio of 90% or more (almost completely withered)) | 4 (Herbicidal ratio of 70% or higher and lower than 90%) | 1 (Herbicidal ratio of 5% or higher and lower than 20%) | 5 (Herbicidal ratio of 90% or more (almost completely withered)) | – | – | – | – | – | – | – | – | – | – | Herbicidal effect grade, I: Avena fatua (Avena fatua; [7]): 3 (Herbicidal ratio of 40% or higher and lower than 70%); Herbicidal effect grade, O: Chenopodium album (Chenopodium album [3]; [7]): 0 (Herbicidal ratio of 5% or lower (almost no effect)); Herbicidal effect grade, P: Stellaria media (Stellaria media; [7]): 0 (Herbicidal ratio of 5% or lower (almost no effect)); Effect on crop grade, f: beet (beet; [7]): 0 (Herbicidal ratio of 5% or lower (almost no effect))
3 | CON=C(C)CC1CC(OC(=O)C(C)(C)C)=C(c2c(C)cc(C)cc2C)C1=O (stereo not drawn) [1-004, 2-mesityl-4-{2-(methoxyimino)propyl}-3-oxocyclopent-1-en-1-yl pivalate] | – | – | 5 (Herbicidal ratio of 90% or more (almost completely withered)) | 4 (Herbicidal ratio of 70% or higher and lower than 90%) | 5 (Herbicidal ratio of 90% or more (almost completely withered)) | 4 (Herbicidal ratio of 70% or higher and lower than 90%) | 3 (Herbicidal ratio of 40% or higher and lower than 70%) | 5 (Herbicidal ratio of 90% or more (almost completely withered)) | 5 (Herbicidal ratio of 90% or more (almost completely withered)) | 5 (Herbicidal ratio of 90% or more (almost completely withered)) | – | – | – | – | – | – | – | – | I (Avena fatua) herbicidal effect grade (Avena fatua; [7]): 5 (Herbicidal ratio of 90% or more (almost completely withered)); O (Chenopodium album) herbicidal effect grade (Chenopodium album [3]; [7]): 0 (Herbicidal ratio of 5% or lower (almost no effect)); P (Stellaria media) herbicidal effect grade (Stellaria media; [7]): 0 (Herbicidal ratio of 5% or lower (almost no effect)); f (beet) effect on crop grade (beet; [7]): 4 (Herbicidal ratio of 70% or higher and lower than 90%)
4 | CC(CC1CC(O)=C(c2c(C)cc(C)cc2C)C1=O)=NOCCS(C)(=O)=O (stereo not drawn) [1-110] | – | – | – | 0 (Herbicidal ratio of 5% or lower (almost no effect)) | – | – | – | 2 (Herbicidal ratio of 20% or higher and lower than 40%) | 0 (Herbicidal ratio of 5% or lower (almost no effect)) | 5 (Herbicidal ratio of 90% or more (almost completely withered)) | 4 (Herbicidal ratio of 70% or higher and lower than 90%) | 0 (Herbicidal ratio of 5% or lower (almost no effect)) | 5 (Herbicidal ratio of 90% or more (almost completely withered)) | 5 (Herbicidal ratio of 90% or more (almost completely withered)) | 5 (Herbicidal ratio of 90% or more (almost completely withered)) | 0 (Herbicidal ratio of 5% or lower (almost no effect)) | 2 (Herbicidal ratio of 20% or higher and lower than 40%) | 0 (Herbicidal ratio of 5% or lower (almost no effect)) | –
5 | CON=C(C)CC1CC(OC(=O)CN(C)C(=O)c2ccccc2)=C(c2c(C)cc(C)cc2C)C1=O (stereo not drawn) [1-139] | – | – | – | 4 (Herbicidal ratio of 70% or higher and lower than 90%) | – | – | – | 5 (Herbicidal ratio of 90% or more (almost completely withered)) | 4 (Herbicidal ratio of 70% or higher and lower than 90%) | 5 (Herbicidal ratio of 90% or more (almost completely withered)) | 4 (Herbicidal ratio of 70% or higher and lower than 90%) | 0 (Herbicidal ratio of 5% or lower (almost no effect)) | 5 (Herbicidal ratio of 90% or more (almost completely withered)) | 5 (Herbicidal ratio of 90% or more (almost completely withered)) | 4 (Herbicidal ratio of 70% or higher and lower than 90%) | 0 (Herbicidal ratio of 5% or lower (almost no effect)) | 1 (Herbicidal ratio of 5% or higher and lower than 20%) | 0 (Herbicidal ratio of 5% or lower (almost no effect)) | –
6 | CON=C(C)CC1CC(OC(=O)CSc2ccccc2)=C(c2c(C)cc(C)cc2C)C1=O (stereo not drawn) [1-134] | – | – | – | 4 (Herbicidal ratio of 70% or higher and lower than 90%) | – | – | – | 5 (Herbicidal ratio of 90% or more (almost completely withered)) | 5 (Herbicidal ratio of 90% or more (almost completely withered)) | 5 (Herbicidal ratio of 90% or more (almost completely withered)) | 2 (Herbicidal ratio of 20% or higher and lower than 40%) | 0 (Herbicidal ratio of 5% or lower (almost no effect)) | 5 (Herbicidal ratio of 90% or more (almost completely withered)) | 5 (Herbicidal ratio of 90% or more (almost completely withered)) | 4 (Herbicidal ratio of 70% or higher and lower than 90%) | 0 (Herbicidal ratio of 5% or lower (almost no effect)) | 4 (Herbicidal ratio of 70% or higher and lower than 90%) | 0 (Herbicidal ratio of 5% or lower (almost no effect)) | –
